Data from patent US20040175383A1, “Methods and compositions for treatment of otitis media” (priority 2002, published 2004).
Like-named read-outs stand apart in the source and are kept apart here.

Legend:
[1] = test system: acute otitis media induced by Streptococcus pneumoniae; type: in vivo, chinchilla
Description: All study animals were initially anesthetized to allow baseline hearing testing (electrocochleography and tympanometry) and to allow bacteria (Streptococcus pneumoniae) to be injected across the thin bone covering the middle ear (dorsal bulla) to induce a middle ear infection bilaterally. After allowing the inflammation to become established for 3 to 4 days, the ears were graded for severity of middle ear inflammation. Half the ears were injected with alpha 1-antitrypsin (100 mg/ml)half with saline. All animals received systemic antibacterial treatment (enrofloxacin). […] Assessment was given quantiatively according to the following table: [table] Hearing assessment were also performed throughout the study and following euthanasia at the end of study, temporal bone specimens were obtained from all ears for histopathological analysis.

[2] = in vivo
Description: (§1) Prospective, randomized, controlled trial in the chinchilla model.
(§2) After completing baseline auditory testing and bilateral transpalatal obstruction of the Eustachian tube (ETO), chinchillas received weekly transbullar injections of protease inhibitor (alpha 1-antitrypsin, ilomastat, or both), vehicle, or saline. After one month, hearing was tested and the animals were sacrificed. Temporal bone histopathology was performed.
(§3) A total of 96 healthy adult chinchillas of either sex, 400-600 grams, were used in this experiment. Prior to entry into the study, all animals were otomicroscopically free of middle ear pathology. All animals underwent auditory testing and bilateral transpalatal obstruction of the Eustachian tube, followed by immediate transbullar injection (across the thin bone covering the dorsal aspect of the middle ear) of saline or vehicle solution, with or without protease inhibitor. Thus, there were five treatment groups: saline, vehicle solution, vehicle with alpha 1-antitrypsin (100 μg /ml), vehicle with ilomastat (100 μg /ml), and vehicle with alpha 1-antitrypsin and ilomastat (100 μg /ml of each). Weekly thereafter, animals received a light anesthetic for ear examinations, transbullar sampling of the middle ear fluid, and transbullar reinjection of saline or the vehicle +/− protease inhibitor. One month after ETO, animals were anesthetized, middle ear fluid was removed, and auditory testing was performed immediately prior to sacrifice. Temporal bones were harvested for histopathological analysis.
(§4) Ilomastat was prepared by substituting alpha 1-antitrypsin. Vehicle was similarly prepared, without the addition of any protease inhibitor. Injectable, 0.9% normal saline was used as the non-treatment control.
(§5) Briefly, the palate was split and the Eustachian tube orifices were bluntly palpated. The orifices were denuded of mucosa, the deeper tissues cauterized, and the lumen packed with Gelfoam sponge. The palate was reapproximated with a single layer of polyglycolic acid sutures.
(§6) Auditory Evaluation: Assessment of auditory thresholds was performed using electrocochleography. […] Electrocochleographic thresholds were measured for clicks and tone pips at 4, 8, 12, and 16 kHz. Stimulus generation was executed by an auditory electrophysiology workstation with SigGen™ and AeP™ software (Tucker-Davis Technologies, Gainesville, Fla.) and Etymotic transducers (ER-2, Elk Grove Village, Ill.). Stimuli were introduced with an insert earphone tube placed into the external auditory canal, just medial to the crus of the helix. Auditory thresholds were evaluated by decreasing stimulus intensity in 5 dB increments, from a maximum of 100 dB, until the waveform disappeared. At that point, the stimulus intensity was increased in 5 dB increments until the waveform re-emerged. […]

[3] = test system: inner ear / hearing (electrocochleographic thresholds); settings: in vivo
Description: as §1, §2, §3, §4, §5, §6

[4] = test system: MMP activity (tMMP, predominantly MMPs 2 and 9) in MEE samples; test: MMP activity in human middle ear effusion samples in the presence of ilomastat (colorimetric synthetic substrate assay); type: biochemical; set-up: Inhibition of MMP activity, overall / Ilomastat-MMP Inhibition % (mean inhibition): concentration or dose not given beside the values; settings: for Ilomastat-MMP Inhibition % (mean inhibition) / MMP >30% Inhibition (percent of samples that had enzyme activity inhibited by >30%): MEE samples
Description: Human Subjects & Sample Collection: Middle ear effusion (MEE) samples were collected from all consenting patients that presented to the investigators for the treatment of OM. Most samples were taken from subjects at the time of myringotomy, with or without tube placement, for recurrent acute otitis media (RAOM) and chronic otitis media with effusion (COME). Less commonly, samples were collected upon presentation with acute post-tympanostomy otorrhea (APTO) or with chronic suppurative otitis media (CSOM). Samples were aspirated with a Juhn Tymp-Tap (Medtronic-Xomed, Jacksonville, Fla.). The aspiration device was rinsed—and sample diluted—with 500 μl of normal saline and immediately placed on ice for transport to the investigators' laboratories. Samples were centrifuged to remove cellular material then divided into aliquots and frozen until batch processing could be performed.
Protease and Inhibition Analysis: Active (aMMP) and proenzyme (pMMP) forms of MMPs 2 and 9 were measured using a gelatin zymography technique. MMP activity (tMMP, but predominantly MMPs 2 and 9) present in MEE samples was measured using a […] assay that uses a synthetic substrate that reduces Ellmans reagent upon cleavage. Because two different activity assays were used that detected different types and levels of MMPs, a direct comparison between aMMP, pMMP and tMMP was not considered valid. Human neutrophil elastase (HNE) activity was measured using a standard technique. Results were expressed as change in absorbance over time (mAU/min). […] Samples with excessive activity levels were tested by serial dilution. MMP activity was measured in the presence of physiologically deliverable levels of ilomastat.
Statistical Analysis: An analysis of variance was performed on the enzyme activities and mean inhibition of activities to determine if there were differences activities across diagnoses, middle ear findings. If there were statistically significant differences, […] tests were performed. […] The distribution of patients with an activities greater than 3 mAU/min and inhibition greater than 30% was tested using Fisher's exact test to determine if there was a difference in these distributions across diagnoses.

[5] = test system: inner ear / hearing (electrocochleographic thresholds); test: Ototoxicity study in chinchilla with Eustachian tube obstruction, weekly transbullar injection of protease inhibitors; settings: applied to the middle ear
Description: as §1, §2, §3, §4, §5, §6

**Q.** With “rAAT: Recombinant alpha 1-antitrypsin, a serine protease inhibitor, expressed in recombinant yeast cells and purified by column chromatography” as the molecule, how does the “TM Score” value ([1]; Day 1, otomicroscopic scale 0 (normal) to 6 (perforated)) read?
**A.** Its value is 0.

**Q.** What about the “TM Score” value ([1]; Day 4, scale 0-6) of the same molecule?
**A.** Its value is 2.167.

**Q.** And the “TM Score” value ([1]; Day 6, scale 0-6)?
**A.** Its value is 4.17.

**Q.** What about the “TM Score” value ([1]; Day 8, scale 0-6) of the same molecule?
**A.** The value was 3.5.

**Q.** What about the “TM Score” value ([1]; Day 10, scale 0-6) of the same molecule?
**A.** The value was 2.8.

**Q.** And the “TM Score” value ([1]; Day 14, scale 0-6)?
**A.** The value was 1.25.

**Q.** What about the “TM Score” value ([1]; Day 16, scale 0-6) of the same molecule?
**A.** The value was 0.75.

**Q.** And the “TM Score” value ([1]; Day 18, scale 0-6)?
**A.** Its value is 0.5.

**Q.** What about the “TM Score” value ([1]; Day 20, scale 0-6) of the same molecule?
**A.** The value was 0.5.

**Q.** What about the “TM Score” value ([1]; Day 22, scale 0-6) of the same molecule?
**A.** Its value is 0.

**Q.** And the “TM Score” value ([1]; Day 24, scale 0-6)?
**A.** The value was 0.

**Q.** What about the “TM Score” value ([1]; Day 26, scale 0-6) of the same molecule?
**A.** The value was 0.

**Q.** What about the “TM Score” value ([1]; Day 28, scale 0-6) of the same molecule?
**A.** Its value is 0.

**Q.** And the “Middle ear inflammation by otomicroscopy, compared with saline” value ([1]; otic administration, with systemic enrofloxacin)?
**A.** The value was “mitigated the inflammatory process more rapidly than saline”.

**Q.** And the “Time to resolution of clinical manifestations of otitis media” value ([1]; single application of rAAT, control 26 days)?
**A.** The value was 22 days.

**Q.** And the “Persistence of middle ear effusion at the final treatment day (percent of ears)” value [2]?
**A.** The value was 100%.

**Q.** And the “Ototoxicity in the chinchilla model” value [3]?
**A.** Its value is “lack ototoxicity”.

**Q.** With `CNC(=O)[C@H](Cc1c[nH]c2ccccc12)NC(=O)[C@@H](CC(=O)NO)CC(C)C` [Ilomastat, N-[2(R)-2(hydroxyamidocarbonylmethyl)-4-methylpentanoyl]-L-tryptophan methyl amide] as the molecule, how does the “Ilomastat-MMP Inhibition % (mean inhibition)” value (“Ilomastat-MMP Inhibition %” for short) ([4]; diagnosis APTO) read?
**A.** Its value is 41.2%.

**Q.** What about the “MMP >30% Inhibition (percent of samples that had enzyme activity inhibited by >30%)” value ([4]; diagnosis APTO) of the same molecule?
**A.** Its value is 57%.

**Q.** What about the “Ilomastat-MMP Inhibition %” value ([4]; diagnosis COME) of the same molecule?
**A.** Its value is 70.0%.

**Q.** And the “MMP >30% Inhibition (percent of samples that had enzyme activity inhibited by >30%)” value ([4]; diagnosis COME)?
**A.** Its value is 86%.

**Q.** What about the “Ilomastat-MMP Inhibition %” value ([4]; diagnosis CSOM) of the same molecule?
**A.** Its value is 51.5%.

**Q.** And the “MMP >30% Inhibition (percent of samples that had enzyme activity inhibited by >30%)” value ([4]; diagnosis CSOM)?
**A.** Its value is 40%.

**Q.** What about the “Ilomastat-MMP Inhibition %” value ([4]; diagnosis Cholesteatoma) of the same molecule?
**A.** Its value is 31.5%.

**Q.** And the “MMP >30% Inhibition (percent of samples that had enzyme activity inhibited by >30%)” value ([4]; diagnosis Cholesteatoma)?
**A.** The value was 71%.

**Q.** And the “Ilomastat-MMP Inhibition %” value ([4]; diagnosis RAOM)?
**A.** The value was 85.5%.

**Q.** And the “MMP >30% Inhibition (percent of samples that had enzyme activity inhibited by >30%)” value ([4]; diagnosis RAOM)?
**A.** The value was 100%.

**Q.** What about the “Ilomastat-MMP Inhibition %” value ([4]; diagnosis RAOM/COME) of the same molecule?
**A.** Its value is 81.4%.

**Q.** What about the “MMP >30% Inhibition (percent of samples that had enzyme activity inhibited by >30%)” value ([4]; diagnosis RAOM/COME) of the same molecule?
**A.** The value was 100%.

**Q.** What about the “Percent of MEEs with significant inhibition (>30% reduction) of MMP activity” value ([4]; MEEs with significant MMP activity (>3 mAU/min)) of the same molecule?
**A.** The value was 80%.

**Q.** And the “Inhibition of MMP activity, overall” value ([4]; all MEE samples)?
**A.** The value was 64%.

**Q.** What about the “Persistence of middle ear effusion at the final treatment day (percent of ears)” value [2] of the same molecule?
**A.** Its value is 83%.

**Q.** What about the “Ototoxicity in the chinchilla model” value [5] of the same molecule?
**A.** The value was “lack ototoxicity”.
